Read-outs that look alike come from different tables or passages of the source. Where no end group is shown, it is not given here.
Assays:
[1] = tested on: E. coli DH5α; conditions: 5 μl of 250 μg/ml solutions of each peptide; E. coli
Method: Briefly, approximately 4×10^6 of mid-logarithmic-phase organisms were grown on plates in 11 ml of warm 0.8% agarose containing 0.03% (w/v) Tryticase soy broth (TSB) powder, with or without 100 mM NaCl, buffered with 10 mM sodium phosphate, pH 7.4. The test peptide was serially diluted in acidified water (0.01% acetic acid), and 5 μl of diluted peptide sample was loaded in a 2.5 diameter well in the agarose. A 10 ml overlay gel composed of 6% TSB, 0.8% agarose and 10 mM sodium phosphate buffer (pH 7.4) was poured into each well. Plates were then incubated overnight to allow the surviving organisms to form microcolonies. The clear zone were measured to the nearest 0.1 mm using a magnified transilluminator and expressed in units (1 mm=10 U) after subtracting the well diameter. The minimum inhibitory concentration (MIC) is defined by the χ intercept of a regression line through zone diameters obtained from a series of serially diluted peptide samples.

[2] = tested on: Bacillus subtilis; format: cell-based; conditions: Table 1
[3] = tested on: Staphylococcus aureus (ATCC 700698); format: cell-based; conditions: ATCC 700698, 17 h
Method: (§1) The MIC values of SEQ ID NO: 2 and SEQ ID NO: 19 were also determined against a range of multidrug-resistant isolates, including clinical and laboratory strains. Peptides, maintained at −20° C. in solid form for storage purposes, were subsequently dissolved in 0.01% (v/v) acetic acid (Sigma-Aldrich) to a stock concentration of […]. The stock solutions were made fresh for each experiment. Eighteen (18) bacterial isolates obtained from the Facility for Anti-Infective Drug Development and Innovation, Victoria, Australia (FADDI) as listed in Table 2 were maintained as stock cultures in Tryptic Soya Broth plus 20% (v/v) glycerol at a temperature of −80° C., and subcultured onto Nutrient Agar for each experiment. MIC values were determined in cation-adjusted Mueller-Hinton broth (CAMHB) and Mueller-Hinton broth (MHB) using standard broth micro-dilution methods.

[4] = tested on: Enterococcus faecium (ATCC 700221); format: cell-based; conditions: ATCC 700221, 17 h
Method: as §1

[5] = tested on: A. baumannii strain FADDI 005 (ATCC 19606 derivative); format: cell-based, Acinetobacter baumannii; conditions: 17 hr at 35° C.
Method: as §1
Pseudomonas aeruginosa (ATCC 27853) and S. aureus (ATCC 43300) were included as quality controls in experiments. P. aeruginosa strains FADDI 001 and FADDI 002 are mucoid; and P. aeruginosa strains FADDI 003 and FADDI 004 are non-mucoid. P. aeruginosa strain FADDI 003 also has a small colony morphology. The A. baumannii strain FADDI 005 is a colistin-resistant isolate obtained from Mueller-Hinton agar containing 10 mg/L colistin.

[6] = tested on: K. pneumoniae strain FADDI 008; format: cell-based, Klebsiella pneumoniae; conditions: strain FADDI 008, 17 h
Method: as §1

[7] = tested on: K. pneumoniae strain FADDI 010; format: cell-based, Klebsiella pneumoniae; conditions: strain FADDI 010, 17 h
Method: as §1

[8] = tested on: K. pneumoniae strain FADDI 009; format: cell-based, Klebsiella pneumoniae; conditions: strain FADDI 009, 17 h
Method: as §1

[9] = tested on: S. aureus 700699; format: cell-based, Staphylococcus aureus; conditions: 700699, 17 h
Method: as §1

[10] = tested on: S. aureus (ATCC 43300); format: cell-based, Staphylococcus aureus; conditions: ATCC 43300, 17 h
Method: as §1

[11] = tested on: S. aureus strain FADDI 011; format: cell-based, Staphylococcus aureus; conditions: strain FADDI 011, 17 h
Method: as §1

[12] = tested on: Streptococcus equi equi (ATCC 9527); format: cell-based; conditions: Table 1
[13] = tested on: A. baumannii strain FADDI 007; format: cell-based, Acinetobacter baumannii; conditions: strain FADDI 007, 17 h
Method: as §1

[14] = tested on: A. baumannii strain FADDI 006; format: cell-based, Acinetobacter baumannii; conditions: strain FADDI 006, 17 h
Method: as §1

[15] = tested on: P. aeruginosa strain FADDI 001; format: cell-based, Pseudomonas aeruginosa; conditions: strain FADDI 001, 17 h
Method: as §1

[16] = tested on: P. aeruginosa strain FADDI 004; format: cell-based, Pseudomonas aeruginosa; conditions: strain FADDI 004, 17 h
Method: as §1

[17] = tested on: P. aeruginosa strain FADDI 003; format: cell-based, Pseudomonas aeruginosa; conditions: strain FADDI 003, 17 h
Method: as §1

[18] = tested on: P. aeruginosa strain FADDI 002; format: cell-based, Pseudomonas aeruginosa; conditions: strain FADDI 002, 17 h
Method: as §1

[19] = tested on: Candida albicans (ATCC 753); format: cell-based; conditions: Table 1
[20] = tested on: tammar wallaby erythrocytes; format: cell-based
Method: The toxicity of the antimicrobial peptides was determined using a haemolytic assay. In particular, the hemolytic activity of the peptides was determined using tammar wallaby erythrocytes. Fresh erythrocytes were harvested from heparinized blood taken from a tammar wallaby. Erythrocytes were harvested by centrifugation for 3 min at 3000 g. Erythrocytes were then washed three times with PBS (pH 7.4) until the supernatant was essentially colourless. 20 μl two fold serial dilutions of the peptide were mixed with the same volume of erythrocytes in solution 2%) in PBS of each well of a 96-plate. 80 μl PBS was added to each well after the plate was incubated at 37° C. for one hour. Plates were then centrifuged at 3000 g for 5 min. 90 μl of the resulting supernatant was transferred to a flat-bottom microtiter plate and haemoglobin release was monitored by measuring the absorbance at 414 nm with an ELISA plate reader. […] Each sample was performed in triplicate. Percentage hemolysis was calculated by the following formula: [(OD414 peptide−OD414 buffer)/OD414 complete hemolysis−OD414 buffer)]×100%.

[21] = tested on: A. baumannii strain FADDI 005 (ATCC 19606 derivative); set-up: key: resistant (R); susceptible (S); conditions: Laboratory prepared; obtained from Mueller-Hinton agar containing 10 mg/L colistin; cited from earlier work
[22] = tested on: Pseudomonas aeruginosa (ATCC 27853); set-up: key: resistant (R); susceptible (S); conditions: Reference isolate; cited from earlier work
[23] = tested on: Klebsiella pneumoniae (ATCC 13883); set-up: key: resistant (R); susceptible (S); conditions: Reference isolate; cited from earlier work
[24] = tested on: P. aeruginosa strain FADDI 001; set-up: key: resistant (R); susceptible (S); conditions: Clinical specimen; cited from earlier work
[25] = tested on: K. pneumoniae strain FADDI 009; set-up: key: resistant (R); susceptible (S); conditions: Clinical specimen; cited from earlier work
[26] = tested on: A. baumannii strain FADDI 006; set-up: key: resistant (R); susceptible (S); conditions: Clinical specimen; cited from earlier work
[27] = tested on: K. pneumoniae strain FADDI 008; set-up: key: resistant (R); susceptible (S); conditions: Clinical specimen; cited from earlier work
[28] = tested on: P. aeruginosa strain FADDI 002; set-up: key: resistant (R); susceptible (S); conditions: Clinical specimen; cited from earlier work
[29] = tested on: P. aeruginosa strain FADDI 004; set-up: key: resistant (R); susceptible (S); conditions: Clinical specimen; cited from earlier work
[30] = tested on: Acinetobacter baumannii (ATCC 19606); set-up: key: resistant (R); susceptible (S); conditions: Reference isolate; cited from earlier work
[31] = tested on: K. pneumoniae strain FADDI 010; set-up: key: resistant (R); susceptible (S); conditions: Clinical specimen; cited from earlier work
[32] = tested on: A. baumannii strain FADDI 007; set-up: key: resistant (R); susceptible (S); conditions: Clinical specimen; cited from earlier work
[33] = tested on: P. aeruginosa strain FADDI 003; set-up: key: resistant (R); susceptible (S); conditions: Clinical specimen; cited from earlier work

## KRGLWESLKRKATKLGDDIRNTLRNFKIKFPVPRQ-NH2 [SEQ ID NO: 19]
[1]
  radial clear zone compared to LL-37 (FIG. 3): larger radial clear zone
[2]
  antimicrobial activity in words: moderately protective
[3]
  MIC: >64 µg/mL
[4]
  MIC: 16 µg/mL
[5]; CAMHB (10.0 mg/L Mg2+ and 24 mg/L Ca2+)
  MIC: 8 µg/mL
[5]; MHB (less than 5 mg/L Mg2+ and 24 mg/L Ca2+)
  MIC: 16 µg/mL
[6]
  MIC: >64 µg/mL
[7]
  MIC: >64 µg/mL
[8]
  MIC: >64 µg/mL
[9]
  MIC: >64 µg/mL
[10]
  MIC: >64 µg/mL
[11]
  MIC: >64 µg/mL
[12]
  antimicrobial activity in words: moderately protective
[13]
  MIC: 16 µg/mL
[14]
  MIC: >64 µg/mL
[15]
  MIC: >64 µg/mL
[16]
  MIC: >64 µg/mL
[17]
  MIC: >64 µg/mL
[18]
  MIC: >64 µg/mL
[19]
  antimicrobial activity in words: Weaker antimicrobial activity
[20]
  haemolysis at the MIC determined in Example 1: less than 5%
  haemolysis at the majority of concentrations tested (FIGS. 2a and 2b): did not cause substantial levels of haemolysis

## colistin
[21]
  Colistin resistant (R) or susceptible (S): R
[22]
  Colistin resistant (R) or susceptible (S): S
[23]
  Colistin resistant (R) or susceptible (S): S
[24]
  Colistin resistant (R) or susceptible (S): S
[25]
  Colistin resistant (R) or susceptible (S): R
[26]
  Colistin resistant (R) or susceptible (S): R
[27]
  Colistin resistant (R) or susceptible (S): S
[28]
  Colistin resistant (R) or susceptible (S): S
[29]
  Colistin resistant (R) or susceptible (S): R
[30]
  Colistin resistant (R) or susceptible (S): S
[31]
  Colistin resistant (R) or susceptible (S): R
[32]
  Colistin resistant (R) or susceptible (S): S
[33]
  Colistin resistant (R) or susceptible (S): R
